Where a name gives a salt, the structure may show the parent alone.
Legend:
cats = test: Effect on heart rate in cats; assay type: in vivo, cat; conditions: anesthetized cats, 1.0 mg/kg i.v.; for Half-life: heart rate effect
Protocol: The cats were anesthetized with Nembutal (30 mg/kg i.p.) and chloralose urethane (40 mg/ml of chloralose+200 mg/ml of urethane, as required). The compound to be tested was injected in aqueous solution into the vena saphena or into the duodenum. The heart rate was recorded before and after the admiministration of the substance by means of a Grass tachograph from the electrocardiagram (taken from and chest wall) on a Grass polygraph.

Acute toxicity in mice = conditions: mouse, in vivo, observation period 14 days
Protocol: The acute toxicity of the test compound was determined in mice (observationperiod: 14 days) after intravenous and peroral administration: […]

rats = test: Effect on heart rate in rats; assay type: in vivo, rat; conditions: anesthetized rats
Protocol: The effect of the test substances on heart rate was investigated in two rats with an average weight of 250 to 300 gm for each dose. The rats were anesthetized with pentobarbital (50 mg/kg i.p. and 20 mg/kg s.c.). The test substances were injected in aqueous solution into the jugular vein (0.1 ml/100 gm). The blood pressure was measured using a cannula inserted in a carotid artery and the heart rate was recorded from an ECG (IInd or IIIrd reading) obtained using needle electrodes. The heart rate of the animals in the control period was between 350 and 400 beats per minute (b/min).

Compound	Reduction in Heart Rate (cats)	Half-life (cats)	Reduction in Heart Rate (20 Minutes) After Application of the Compound (rats; 1.0 mg/kg i.v.)	Reduction in Heart Rate (20 Minutes) After Application of the Compound (rats; 2.5 mg/kg i.v.)	Reduction in Heart Rate (20 Minutes) After Application of the Compound (rats; 5.0 mg/kg i.v.)	other results
COc1ccc(CCN(C)CCCN2CCc3cc(OC)c(OC)cc3CC2=O)cc1OC.Cl.Cl [A, 1-[7,8-Dimethoxy-1,3,4,5-tetrahydro-2H-3-benzazepin-2-on-3-yl]-3-[N-methyl-N-(2-{3,4-dimethoxy-phenyl}-ethyl)-amino]-propane dihydrochloride]	-55%	2 h	–	–	–	LD50 at 336 h (Acute toxicity in mice; iv): 89 mg/kg; LD50 at 336 h (Acute toxicity in mice; po): 1350 mg/kg
COc1ccc(CCN(C)CCCN2C=Cc3cc(OC)c(OC)cc3CC2=O)cc1OC.Cl [B, 1-[7,8-Dimethoxy-1,3-dihydro-2H-3-benzazepin-2-on-3-yl]-3-[N-methyl-N-(2-{3,4-dimethoxy-phenyl}-ethyl)-amino]-propane hydrochloride]	-45%	2 h	–	–	–	–
COc1ccc(CCN(C)CCCN2CCc3cc(OC)c(OC)cc3C(=O)C2=O)cc1OC [C, 1-[7,8-Dimethoxy-1,3,4,5-tetrahydro-2H-3-benzazepine-1,2-dion-3-yl]-3-[N-methyl-(2-}3,4-dimethoxy-phenyl}-ethyl)-amino]-propane hydrochloride]	-44%	1.5 h	–	–	–	–
COc1ccc(CCN(C)CCCN2CCc3cc(OC)c(OC)cc3NC2=O)cc1OC [D, 1-[7,8-Dimethoxy-1,3,4,5-tetrahydro-2H-1,3-benzodiazepin-2-on-3-yl]-3-[N-methyl-(2-{3,4-dimethoxy-phenyl}-ethyl)-amino]-propane]	-41%	1.33 h	–	–	–	–
COc1ccc(CCNCCCN2CCc3cc(OC)c(OC)cc3CC2=O)cc1OC.Cl [E, 1-[7,8-Dimethoxy-1,3,4,5-tetrahydro-2H-3-benzazepin-2-on-3-yl]-3-[N-(2-{3,4-dimethoxy-phenyl}-ethyl)-amino]-propane hydrochloride]	-45%	1.5 h	–	–	–	–
COc1cc2c(cc1OC)CC(=O)N(CCCN(C)CCc1cc(Cl)c(N)c(Cl)c1)CC2 [F, 1-[7,8-Dimethoxy-1,3,4,5-tetrahydro-2H-3-benzazepin-2-on-3-yl]-3-[N-methyl-N-(2-{4-amino-3,5-dichloro-phenyl}-ethyl)-amino]-propane]	-51%	2 h	–	–	–	–
COc1ccc(CCCN(C)CCCN2CCc3cc(OC)c(OC)cc3CC2=O)cc1OC.Cl [L, 1-[7,8-Dimethoxy-1,3,4,5-tetrahydro-2H-3-benzazepin-2-on-3-yl]-3-[N-methyl-N-(3-{3,4-dimethoxy-phenyl}-propyl)-amino]-propane hydrochloride]	–	–	-51 Beats/Minutes	-85 Beats/Minutes	-183 Beats/Minutes	–
COc1ccc(CCN(C)CCCN2CCc3cc(OC)c(OC)cc3CC2=S)cc1OC [M, 1-[7,8-Dimethoxy-1,3,4,5-tetrahydro-2H-3-benzazepin-2-thion-3-yl]-N-[N-methyl-N-(2-{3,4-dimethoxy-phenyl}-ethyl)-amino]-propane]	–	–	-73 Beats/Minutes	-134 Beats/Minutes	-255 Beats/Minutes	–
COc1ccc(C(O)CN(C)CCCN2CCc3cc(OC)c(OC)cc3CC2=O)cc1OC (stereo not shown) [N, 1-[7,8-Dimethoxy-1,3,4,5-tetrahydro-2H-3-benzazepin-2-on-3-yl]-3-[N-methyl-N-(2-hydroxy-2-{3,4-dimethoxyphenyl}-ethyl)-amino]-propane]	–	–	–	-137 Beats/Minutes	-173 Beats/Minutes	–
COc1ccc(CCN(C)CCCN2CCc3cc(OC)c(OC)cc3C(O)C2=O)cc1OC (stereo not shown) [O]	–	–	-83 Beats/Minutes	-73 Beats/Minutes	-117 Beats/Minutes	–
COc1cc2c(cc1OC)CC(=O)N(CCCN(C)CCc1ccc(N)c([N+](=O)[O-])c1)CC2 [P, 1-[7,8-Dimethoxy-1,3,4,5-tetrahydro-2H-3-benzazepin-2-on-3-yl]-3-[N-methyl-N-(2-{4-aino-3-nitro-phenyl}-ethyl)-amino]-propane hydrochloride]	–	–	–	–	-130 Beats/Minutes	–
COc1cc2c(cc1OC)CC(=O)N(CCCN(C)CCCCc1ccc(N(C)C)cc1)CC2 [Q, 1-[7,8-Dimethoxy-1,3,4,5-tatrahydro-2H-3-benzazepin-2-on-3-yl]-3-N-methyl-N-(4-{4-dimethylaino-phenyl}butyl)-amino]-propane hydrobromide]	–	–	-94 Beats/Minutes	-91 Beats/Minutes	-123 Beats/Minutes	–
COc1cc2c(cc1OC)CC(=O)N(CCCN(C)CCc1ccccc1)CC2.Cl.Cl [R, 1-[7,8-Dimethoxy-1,3,4,5-tetrahydro-2H-3-benzazepin-2-on-3-yl]-3-[N-methyl-N-(2-phenyl-ethyl)-amino]-propane dihydrochloride]	–	–	-80 Beats/Minutes	-110 Beats/Minutes	-135 Beats/Minutes	–
COc1cc(CCCCCN(C)CCCN2CCc3cc(OC)c(OC)cc3CC2=O)cc(OC)c1 [S, 1-[7,8-Dimethoxy-1,3,4,5-tetrahydro-2H-3-benzazepin-2-on-3-yl]-3-[N-methyl-N-(5-{3,5-dimethoxy-phenyl}-pentyl)-amino]-propane]	–	–	–	–	-18 Beats/Minutes	–
COc1cc2c(cc1OC)CC(=O)N(CCCN(C)CCCc1cc(Cl)c(N)c(Cl)c1)CC2 [T, 1-[7,8-Dimethoxy-1,3,4,5-tetrahydro-2H-3-benzazepin-2-on-3-yl]-3-[N-methyl-N-(3-{4-amino-3,5-dichlorophenyl}-propyl)-amino]-propane]	–	–	–	–	-175 Beats/Minutes	–
COc1ccc(CCN(C)CCCN2CCCc3cc(OC)c(OC)cc3C2=O)cc1OC [U, 1-[7,8-Dimethoxy-1,3,4,5-tetrahydro-5H-2-benzazepin-1-on-2-yl]-3-[N-methyl-N-(2-{3,4-dimethoxy-phenyl}-ethyl)-amino]-propane hydrochloride, reference compound]	-8.2%	0.217 h	–	–	-18 Beats/Minutes	–

— US4490369A, “Benzazepine derivatives, their pharmaceutical compositions and method of use” (Dr. Karl Thomae Gesellschaft mit beschrankter Haftung, priority 1981, dated 1984)
